Values of other authors as cited in article PMC12246617, “Cryo-EM structures reveal the PP2A–B55α and Eya3 interaction that can be disrupted by a peptide inhibitor” (The Journal of Biological Chemistry, 2025).

Tested on: PP2A–B55
Settings: 6,8-difluoro-4-methylumbelliferyl phosphate substrate; 30 mM Hepes [pH 7.0], 150 mM NaCl, 1 mM MnCl2, 1 mM DTT, 0.01% Triton X-100, 0.1 mg/ml BSA; ref 84 (Padi et al.); read-out: IC50 (phosphatase activity of PP2A–B55)
From the text: To identify the factor that led to this discrepancy, we first repeated our as ...

Eya3 peptide: Eya3 peptide (residues 62–108) of Padi et al. (RSSNDYTSQMYSAKPYAHILSVPVSETAYPGQTQYQTLQQTQPYAVY; UniProt Q99504 62-108, looked up, fragment)
IC50: 1.1 ± 0.084 µM
